The source of these data is patent US7829665B2 (priority 2005, dated 2010).

By IC50 is commonly meant the concentration that inhibits the measured activity by half.

Bounds are passed on as bounds.

This assay deals with T1, full-length NS3/NS4A-2 (HCV NS3 protease) (Hepatitis C virus genotype 1a, UniProt P27958).
T1 construct: Recombinant E. coli or Baculovirus full-length NS3 was diluted to 3.33 μM with assay buffer; made in house; host or cells: E. coli or baculovirus (BV) expression system
The assay can be described thus: NS3-NS4 protease assay / NS3 inhibition assay (RETS1 substrate, fluorescence kinetic read). Particulars: recombinant E. coli or Baculovirus full-length NS3 with NS4A-2; read-out: NS3-NS4 IC50. The class given is biochemical. The method, then:
NS3 complex formation with NS4A-2.
Recombinant E. coli or Baculovirus full-length NS3 was diluted to 3.33 μM with assay buffer and transferred material to an eppendorf tube and place in water bath in 4° C. refrigerator. The appropriate amount of NS4A-2 to 8.3 mM in assay buffer was added to equal the volume of NS3 in step 2.1.1 (conversion factor—3.8 mg/272 μL assay buffer). The material was transferred to an eppendorf tube and place in water bath in 4° C. refrigerator.
After equilibration to 4° C., equal volumes of NS3 and NS4A-2 solutions were combined in an eppendorf tube, mix gently with a manual pipettor, and incubate mixture for 15 minutes in the 4° C. water bath. Final concentrations in the mixture are 1.67 μM NS3, 4.15 mM NS4A-2 (2485-fold molar excess NS4A-2).
After 15 minutes at 4° C., the NS3/NS4A-2 eppendorf tube was removed and place it in a room temperature water bath for 10 minutes. NS3/NS4A-2 was alliquoted at appropriate volumes and store at −80° C. (E. coli NS3 run at 2 nM in assay, aliquot at 25 μL. BV NS3 run at 3 nM in assay, aliquot at 30 μL).
Sample compounds were dissolved to 10 mM in DMSO then diluted to 2.5 mM (1:4) in DMSO. Typically, compounds were added to an assay plate at 2.5 mM concentration, yielding upon dilution a starting concentration of 50 microM in the assay inhibition curve. Compounds were serial diluted in assay buffer to provide test solutions at lower concentrations.
The E. coli. NS3/NS4A-2 was diluted to 4 nM NS3 (1:417.5 of 1.67 μM stock−18 μL 1.67 μM stock+7497 μL assay buffer). The BV NS3/NS4A-2 was diluted to 6 nM NS3 (1:278.3 of 1.67 μM stock−24 μL 1.67 μM stock+6655 μL assay buffer). Using the manual multichannel pipettor, careful not to introduce bubbles into the plate, add 50 μL assay buffer to wells A01-H01 of a black Costar 96-well polypropylene storage plate.
Using the manual multichannel pipettor, careful not to introduce bubbles into the plate, add 50 μL of diluted NS3/NS4A-2 from step 2.2.6 to wells A02-H12 of plate in step 2.2.7. Using the manual multichannel pipettor, careful not to introduce bubbles into the plate, transfer 25 μL of the wells in drug dilution plate in step 2.2.5 to corresponding wells in assay plate in step 2.2.8. Change tips on multichannel pipettor for each row of compounds transferred. Using the manual multichannel pipettor, careful not to introduce bubbles into the plate, mix the wells from the assay plate in step 2.2.9 by aspirating and dispensing 35 μL of the 75 μL in each well five times. Change tips on multichannel pipettor for each row of wells mixed. Cover plate with a polystyrene plate lid and pre-incubate the plate from step 2.2.10 containing NS3 protease and sample compounds 10 minutes at room temperature. While plate from step 2.2.11 is pre-incubating, dilute RETS1 substrate in a 15 mL polypropylene centrifuge tube. Dilute RETS1 substrate to 8 μM (1:80.75 of 646 μM stock−65 μL 646 μM stock+5184 μL assay buffer).
After the plate in step is done pre-incubating, and using the manual multichannel, add 25 μL of substrate to all wells on the plate. Quickly mix the plate as in step 2.2.10, mixing 65 μL of the 100 μL in the wells.
Read the plate in kinetic mode on the Molecular Devices SpectraMax Gemini XS plate reader. Reader settings: Read time: 30 minutes, Interval: 36 seconds, Reads: 51, Excitation λ: 335 nm, Emission λ: 495 nm, cutoff: 475 nm, Automix: off, Calibrate: once, PMT: high, Reads/well: 6, Vmax pts: 21 or 28/51 depending on length of linearity of reaction
IC50 s are determined using a four parameter curve fit equation, and converted to Ki's using the following Km's: • Full-length E. coli NS3—2.03 μM • Full-length BV NS3—1.74 μM where Ki=IC50/(1+[S]/Km)) • Quantitation by ELISA of the selectable marker protein, Neomycin phosphotransferase II (NPTII) in the HCV Sub-Genomic Replicon, GS4.3

T1 sequence (P27958 1027-1657): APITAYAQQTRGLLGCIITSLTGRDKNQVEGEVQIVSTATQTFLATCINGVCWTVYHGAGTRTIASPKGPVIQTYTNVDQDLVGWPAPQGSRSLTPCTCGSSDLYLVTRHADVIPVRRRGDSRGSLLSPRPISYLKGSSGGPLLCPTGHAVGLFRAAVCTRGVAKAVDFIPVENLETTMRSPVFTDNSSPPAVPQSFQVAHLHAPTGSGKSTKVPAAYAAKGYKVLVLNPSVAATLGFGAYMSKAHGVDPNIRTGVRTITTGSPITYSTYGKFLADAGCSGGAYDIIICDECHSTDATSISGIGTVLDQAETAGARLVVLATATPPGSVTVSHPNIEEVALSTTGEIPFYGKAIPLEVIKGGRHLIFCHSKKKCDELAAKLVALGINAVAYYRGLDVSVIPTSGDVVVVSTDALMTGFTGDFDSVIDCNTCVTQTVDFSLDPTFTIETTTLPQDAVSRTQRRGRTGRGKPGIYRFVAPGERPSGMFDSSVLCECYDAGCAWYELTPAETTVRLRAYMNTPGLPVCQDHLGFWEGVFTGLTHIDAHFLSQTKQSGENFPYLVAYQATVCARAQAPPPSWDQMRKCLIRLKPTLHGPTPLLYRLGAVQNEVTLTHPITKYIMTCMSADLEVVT

In the case of `COC(=O)c1csc(S(=O)(=O)NC(=O)[C@@]23C[C@H]2/C=C\CCCCC[C@H](NC(=O)OC(C)(C)C)C(=O)N2CCC[C@H]2C(=O)N3)c1OC` [Compound 310], the IC50 was greater than 10 µM. The same measure for `COc1c(C(=O)O)csc1S(=O)(=O)NC(=O)[C@@]12C[C@H]1/C=C\CCCCC[C@H](NC(=O)OC(C)(C)C)C(=O)N1CCC[C@H]1C(=O)N2` [Compound 311]: less than 10 µM. In the case of `O=C(N[C@H]1CCCCC/C=C\[C@@H]2C[C@@]2(C(=O)NS(=O)(=O)C2CC2)NC(=O)[C@@H]2CCCN2C1=O)OC1CCCC1` [Compound 312] it was less than 1 µM. In the case of `CC[C@@H]1C[C@H]2C(=O)N[C@]3(C(=O)O)C[C@H]3/C=C\CCCCC[C@H](NC(=O)OC3CCCC3)C(=O)N2C1` [Compound 313] it was less than 10 µM; in that of `O=C(N[C@H]1CCCCC/C=C\[C@@H]2C[C@@]2(C(=O)O)NC(=O)[C@@H]2CCCN2C1=O)C1CC1` [Compound 315], less than 10 µM; in that of `CC(=O)N[C@H]1CCCCC/C=C\[C@@H]2C[C@@]2(C(=O)NS(=O)(=O)C2CC2)NC(=O)[C@@H]2CCCN2C1=O` [Compound 316], less than 10 µM.

On to `CCN(C)S(=O)(=O)NC(=O)[C@@]12C[C@H]1/C=C\CCCCC[C@H](NC(=O)OC(C)(C)C)C(=O)N1CCC[C@H]1C(=O)N2` [Compound 400], for which the half-inhibitory concentration (IC50) is less than 10 µM. On to `CC(C)N(C)S(=O)(=O)NC(=O)[C@@]12C[C@H]1/C=C\CCCCC[C@H](NC(=O)OC(C)(C)C)C(=O)N1CCC[C@H]1C(=O)N2` [Compound 401], for which the IC50 is less than 10 µM. The same measure for `CC(C)(C)OC(=O)N[C@H]1CCCCC/C=C\[C@@H]2C[C@@]2(C(=O)NS(=O)(=O)NCCc2ccccc2Cl)NC(=O)[C@@H]2CCCN2C1=O` [Compound 402]: greater than 10 µM; for `CC(C)(C)OC(=O)N[C@H]1CCCCC/C=C\[C@@H]2C[C@@]2(C(=O)NS(=O)(=O)NCCc2ccc(Cl)cc2)NC(=O)[C@@H]2CCCN2C1=O` [Compound 403]: less than 10 µM; for `CN(c1cccc(Cl)c1)S(=O)(=O)NC(=O)[C@@]12C[C@H]1/C=C\CCCCC[C@H](NC(=O)OC(C)(C)C)C(=O)N1CCC[C@H]1C(=O)N2` [Compound 404]: less than 10 µM. In the case of `CN(c1ccccc1Cl)S(=O)(=O)NC(=O)[C@@]12C[C@H]1/C=C\CCCCC[C@H](NC(=O)OC(C)(C)C)C(=O)N1CCC[C@H]1C(=O)N2` [Compound 405] it was less than 10 µM; in that of `CC(C)(C)OC(=O)N[C@H]1CCCCC/C=C\[C@@H]2C[C@@]2(C(=O)NS(=O)(=O)Nc2cccnc2)NC(=O)[C@@H]2CCCN2C1=O` [Compound 406], greater than 10 µM. The same measure for `CC(C)(C)OC(=O)N[C@H]1CCCCC/C=C\[C@@H]2C[C@@]2(C(=O)NS(=O)(=O)Nc2ccncc2)NC(=O)[C@@H]2CCCN2C1=O` [Compound 407]: greater than 10 µM; for `CC(C)(C)OC(=O)N[C@H]1CCCCC/C=C\[C@@H]2C[C@@]2(C(=O)NS(=O)(=O)N2CCc3ccccc3C2)NC(=O)[C@@H]2CCCN2C1=O` [Compound 408]: less than 10 µM; for `CC(C)(C)OC(=O)N[C@H]1CCCCC/C=C\[C@@H]2C[C@@]2(C(=O)NS(=O)(=O)N2Cc3ccccc3C2)NC(=O)[C@@H]2CCCN2C1=O` [Compound 409]: less than 10 µM. For `CC(C)(C)OC(=O)N[C@H]1CCCCC/C=C\[C@@H]2C[C@@]2(C(=O)NS(=O)(=O)Nc2ccc(Cl)cc2Cl)NC(=O)[C@@H]2CCCN2C1=O` [Compound 410], the IC50 is greater than 10 µM. The same measure for `CC(C)(C)OC(=O)N[C@H]1CCCCC/C=C\[C@@H]2C[C@@]2(C(=O)NS(=O)(=O)NCCc2cccc(Cl)c2)NC(=O)[C@@H]2CCCN2C1=O` [Compound 411]: greater than 10 µM.

As to `C=CCN(C)S(=O)(=O)NC(=O)[C@@]12C[C@H]1/C=C\CCCCC[C@H](NC(=O)OC(C)(C)C)C(=O)N1CCC[C@H]1C(=O)N2` [Compound 412], the IC50 was less than 10 µM. In the case of `COc1ccc(CCNS(=O)(=O)NC(=O)[C@@]23C[C@H]2/C=C\CCCCC[C@H](NC(=O)OC(C)(C)C)C(=O)N2CCC[C@H]2C(=O)N3)cc1` [Compound 413] it was greater than 10 µM. The same measure for `COc1cccc(CCNS(=O)(=O)NC(=O)[C@@]23C[C@H]2/C=C\CCCCC[C@H](NC(=O)OC(C)(C)C)C(=O)N2CCC[C@H]2C(=O)N3)c1` [Compound 414]: greater than 10 µM. Take `COc1ccccc1CCNS(=O)(=O)NC(=O)[C@@]12C[C@H]1/C=C\CCCCC[C@H](NC(=O)OC(C)(C)C)C(=O)N1CCC[C@H]1C(=O)N2` [Compound 415]: the IC50 was greater than 10 µM. In the case of `C[C@H](NS(=O)(=O)NC(=O)[C@@]12C[C@H]1/C=C\CCCCC[C@H](NC(=O)OC(C)(C)C)C(=O)N1CCC[C@H]1C(=O)N2)c1ccccc1` [Compound 416] it was less than 10 µM; in that of `CN(Cc1ccccc1)S(=O)(=O)NC(=O)[C@@]12C[C@H]1/C=C\CCCCC[C@H](NC(=O)OC(C)(C)C)C(=O)N1CCC[C@H]1C(=O)N2` [Compound 417], less than 10 µM. As to `CC(C)COC(=O)N[C@H]1CCCCC/C=C\[C@@H]2C[C@@]2(C(=O)NS(=O)(=O)Nc2ccc(Cl)cc2)NC(=O)[C@@H]2CCCN2C1=O` [Compound 419], the IC50 is less than 10 µM.

For the compound `O=C(N[C@H]1CCCCC/C=C\[C@@H]2C[C@@]2(C(=O)NS(=O)(=O)Nc2ccc(Cl)cc2)NC(=O)[C@@H]2CCCN2C1=O)OC1CCCC1` [Compound 420], the IC50 was greater than 10 µM. In the case of `CC(C)(C)OC(=O)N[C@H]1CCCCC/C=C\[C@@H]2C[C@@]2(C(=O)NS(=O)(=O)NCCc2ccc3ccccc3c2)NC(=O)[C@@H]2CCCN2C1=O` [Compound 421] it was greater than 10 µM; in that of `CC(C)(C)OC(=O)N[C@H]1CCCCC/C=C\[C@@H]2C[C@@]2(C(=O)NS(=O)(=O)NCCc2cccc3ccccc23)NC(=O)[C@@H]2CCCN2C1=O` [Compound 422], greater than 10 µM; in that of `CC(C)(C)OC(=O)N[C@H]1CCCCC/C=C\[C@@H]2C[C@@]2(C(=O)NS(=O)(=O)NCCc2ccccn2)NC(=O)[C@@H]2CCCN2C1=O` [Compound 423], less than 10 µM. In the case of `CC(C)(C)OC(=O)N[C@H]1CCCCC/C=C\[C@@H]2C[C@@]2(C(=O)NS(=O)(=O)NCCc2cccnc2)NC(=O)[C@@H]2CCCN2C1=O` [Compound 424] it was greater than 10 µM. The same measure for `CC(C)(C)OC(=O)N[C@H]1CCCCC/C=C\[C@@H]2C[C@@]2(C(=O)NS(=O)(=O)NCc2ccccn2)NC(=O)[C@@H]2CCCN2C1=O` [Compound 425]: greater than 10 µM; for `CC(C)(C)OC(=O)N[C@H]1CCCCC/C=C\[C@@H]2C[C@@]2(C(=O)NS(=O)(=O)NCc2ccncc2)NC(=O)[C@@H]2CCCN2C1=O` [Compound 426]: greater than 10 µM.

On to `O=C(N[C@H]1CCCCC/C=C\[C@@H]2C[C@@]2(C(=O)NS(=O)(=O)Nc2ccc(Cl)cc2)NC(=O)[C@@H]2CCCN2C1=O)C1CCC1` [Compound 427], for which the concentration for half-maximal inhibition (IC50) is greater than 10 µM.

For `O=C(N[C@H]1CCCCC/C=C\[C@@H]2C[C@@]2(C(=O)NS(=O)(=O)Nc2ccc(Cl)cc2)NC(=O)[C@@H]2CCCN2C1=O)C1CC1` [Compound 428], the IC50 is less than 10 µM. `CC[C@@H]1C[C@H]2C(=O)N[C@]3(C(=O)NS(=O)(=O)Nc4ccc(Cl)cc4)C[C@H]3/C=C\CCCCC[C@H](NC(=O)C3CC3)C(=O)N2C1` [Compound 429]: the IC50 is less than 10 µM.
